Data: ChEMBL document CHEMBL4665643 (Bioorg Med Chem Lett, 2019)

How the values were obtained:
[1] = target: Protein kinase C beta type (Homo sapiens) (UniProt P05771); experiment: Inhibition of recombinant human GST-tagged full length PKCbeta2 expressed in insect expression system using Ser/Thr 07 as substrate at 0.1 uM incubated for 60 mins by Z'-lyte assay relative to control
[2] = target: T1, Aurora kinase A (Homo sapiens) (UniProt O14965); experiment: Inhibition of recombinant human His-tagged full length Aurora A expressed in baculovirus expression system using Ser/Thr 01 as substrate at 0.1 uM incubated for 60 mins by Z'-Lyte assay relative to control
T1 sequence (whole entry): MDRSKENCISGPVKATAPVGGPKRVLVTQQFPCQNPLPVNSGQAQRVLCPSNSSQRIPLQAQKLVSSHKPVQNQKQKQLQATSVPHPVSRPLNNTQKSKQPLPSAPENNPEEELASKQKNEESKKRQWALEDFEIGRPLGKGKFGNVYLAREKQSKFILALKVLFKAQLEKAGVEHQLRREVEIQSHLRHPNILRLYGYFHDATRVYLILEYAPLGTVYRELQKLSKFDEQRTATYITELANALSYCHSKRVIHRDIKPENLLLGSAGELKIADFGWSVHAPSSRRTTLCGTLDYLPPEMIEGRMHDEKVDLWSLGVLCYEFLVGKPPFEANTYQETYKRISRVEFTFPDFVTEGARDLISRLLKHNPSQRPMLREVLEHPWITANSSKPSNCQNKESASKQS

[3] = target: Focal adhesion kinase 1 (Homo sapiens) (UniProt Q05397); experiment: Inhibition of recombinant human GST-tagged full length FAK expressed in baculovirus expression system using Tyr 07 as substrate at 0.1 uM incubated for 60 mins by Z'-Lyte assay relative to control
[4] = target: Mitogen-activated protein kinase 8 (Homo sapiens) (UniProt P45983); experiment: Inhibition of recombinant human His-tagged full length JNK1alpha1 expressed in baculovirus expression system using Ser/Thr 04 as substrate at 0.1 uM incubated for 60 mins by Z'-lyte assay relative to control
[5] = target: Casein kinase I isoform alpha (Homo sapiens) (UniProt P48729); experiment: Inhibition of recombinant human GST-tagged full length CK1alpha1 expressed in baculovirus expression system using Ser/Thr 11 as substrate at 0.1 uM incubated for 60 mins by Z'-Lyte assay relative to control
[6] = target: Insulin-like growth factor 1 receptor (Homo sapiens) (UniProt P08069); experiment: Inhibition of recombinant human His-tagged IGF1R (960 to 1397 residues) expressed in baculovirus expression system using Tyr 01 as substrate at 0.1 uM incubated for 60 mins by Z'-Lyte assay relative to control
[7] = target: Mitogen-activated protein kinase 11 (Homo sapiens) (UniProt Q15759); experiment: Inhibition of recombinant human His-tagged full length p38 beta expressed in baculovirus expression system using Ser/Thr 15 as substrate at 0.1 uM incubated for 60 mins by Z'-Lyte assay relative to control
[8] = target: Calcium/calmodulin-dependent protein kinase type 1D (Homo sapiens) (UniProt Q8IU85); experiment: Inhibition of recombinant human His-tagged full length CAMK1delta expressed in baculovirus expression system using Ser/Thr 25 as substrate at 0.1 uM incubated for 60 mins by Z'-Lyte assay relative to control
[9] = target: Tyrosine-protein kinase SYK (Homo sapiens) (UniProt P43405); experiment: Inhibition of recombinant human N-terminalGST-tagged full length SYK expressed in baculovirus expression system using Tyr 02 as substrate at 0.1 uM incubated for 60 mins by Z'-Lyte assay relative to control
[10] = target: T2, Phosphatidylinositol 4,5-bisphosphate 3-kinase catalytic subunit delta isoform (Homo sapiens) (UniProt O00329); experiment: Inhibition of recombinant human His-tagged full length PI3Kdelta expressed in baculovirus expression system using PIP:PS as substrate at 0.1 uM incubated for 60 mins by Adapta assay relative to control
T2 sequence (whole entry): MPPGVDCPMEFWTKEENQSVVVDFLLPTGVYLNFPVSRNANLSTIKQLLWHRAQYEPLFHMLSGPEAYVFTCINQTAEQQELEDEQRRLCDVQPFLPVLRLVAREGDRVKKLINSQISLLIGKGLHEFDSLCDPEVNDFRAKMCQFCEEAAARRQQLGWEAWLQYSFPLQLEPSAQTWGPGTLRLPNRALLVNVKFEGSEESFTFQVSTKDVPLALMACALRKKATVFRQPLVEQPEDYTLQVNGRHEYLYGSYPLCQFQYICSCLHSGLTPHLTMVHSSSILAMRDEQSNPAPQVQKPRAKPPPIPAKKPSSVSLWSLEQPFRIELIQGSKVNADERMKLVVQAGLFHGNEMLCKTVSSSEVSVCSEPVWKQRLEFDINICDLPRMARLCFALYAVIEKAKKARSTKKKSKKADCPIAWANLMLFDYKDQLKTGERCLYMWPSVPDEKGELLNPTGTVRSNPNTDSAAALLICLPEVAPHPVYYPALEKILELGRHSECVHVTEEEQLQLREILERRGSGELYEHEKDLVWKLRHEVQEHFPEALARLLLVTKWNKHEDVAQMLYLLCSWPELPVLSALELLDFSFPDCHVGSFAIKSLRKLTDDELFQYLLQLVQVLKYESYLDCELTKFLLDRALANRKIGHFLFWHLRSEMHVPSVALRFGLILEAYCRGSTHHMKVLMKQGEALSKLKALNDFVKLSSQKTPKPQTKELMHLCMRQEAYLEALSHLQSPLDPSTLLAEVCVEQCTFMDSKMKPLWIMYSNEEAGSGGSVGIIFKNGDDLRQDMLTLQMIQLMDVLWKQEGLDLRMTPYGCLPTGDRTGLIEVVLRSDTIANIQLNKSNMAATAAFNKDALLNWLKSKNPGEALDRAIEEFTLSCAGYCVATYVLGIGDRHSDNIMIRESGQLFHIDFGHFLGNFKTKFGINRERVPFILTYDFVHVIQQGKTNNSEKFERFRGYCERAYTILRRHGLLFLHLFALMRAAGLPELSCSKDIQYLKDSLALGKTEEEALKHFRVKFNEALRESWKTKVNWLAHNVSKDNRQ

[11] = target: Macrophage colony-stimulating factor 1 receptor (Homo sapiens) (UniProt P07333); experiment: Inhibition of recombinant human His-tagged CSF1R (538 to 910 residues) expressed in baculovirus expression system using Tyr 01 as substrate at 0.1 uM incubated for 60 mins by Z'-Lyte assay relative to control
[12] = target: Casein kinase I isoform epsilon (Homo sapiens) (UniProt P49674); experiment: Inhibition of recombinant human His-tagged full length CK1epsilon expressed in baculovirus expression system using Ser/Thr 11 as substrate at 0.1 uM incubated for 60 mins by Z'-Lyte assay relative to control
[13] = target: Aurora kinase B (Homo sapiens) (UniProt Q96GD4); experiment: Inhibition of recombinant human His-tagged full length Aurora B expressed in baculovirus expression system using Ser/Thr 01 as substrate at 0.1 uM incubated for 60 mins by Z'-Lyte assay relative to control
Sequence of Aurora kinase B (Homo sapiens) (Q96GD4 whole entry): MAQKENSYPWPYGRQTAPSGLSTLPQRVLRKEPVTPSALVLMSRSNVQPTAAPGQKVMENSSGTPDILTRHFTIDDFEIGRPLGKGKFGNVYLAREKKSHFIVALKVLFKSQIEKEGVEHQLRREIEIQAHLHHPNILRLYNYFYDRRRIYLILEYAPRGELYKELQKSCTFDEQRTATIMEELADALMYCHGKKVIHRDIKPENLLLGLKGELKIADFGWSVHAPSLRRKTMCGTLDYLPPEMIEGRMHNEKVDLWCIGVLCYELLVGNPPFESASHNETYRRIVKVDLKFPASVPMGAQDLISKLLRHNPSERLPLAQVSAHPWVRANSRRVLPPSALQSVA

Sequence of Calcium/calmodulin-dependent protein kinase type 1D (Homo sapiens) (Q8IU85 whole entry, looked up): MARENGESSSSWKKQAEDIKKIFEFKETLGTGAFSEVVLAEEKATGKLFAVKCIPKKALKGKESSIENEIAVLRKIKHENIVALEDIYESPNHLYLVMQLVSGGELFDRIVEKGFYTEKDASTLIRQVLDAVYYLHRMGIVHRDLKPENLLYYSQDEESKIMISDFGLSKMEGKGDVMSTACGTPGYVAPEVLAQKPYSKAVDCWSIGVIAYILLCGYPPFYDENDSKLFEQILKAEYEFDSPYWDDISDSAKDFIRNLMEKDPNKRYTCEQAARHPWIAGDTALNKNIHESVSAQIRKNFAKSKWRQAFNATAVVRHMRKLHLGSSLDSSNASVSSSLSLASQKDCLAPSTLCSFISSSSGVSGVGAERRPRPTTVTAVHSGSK
Sequence of Mitogen-activated protein kinase 8 (Homo sapiens) (P45983 whole entry, canonical isoform): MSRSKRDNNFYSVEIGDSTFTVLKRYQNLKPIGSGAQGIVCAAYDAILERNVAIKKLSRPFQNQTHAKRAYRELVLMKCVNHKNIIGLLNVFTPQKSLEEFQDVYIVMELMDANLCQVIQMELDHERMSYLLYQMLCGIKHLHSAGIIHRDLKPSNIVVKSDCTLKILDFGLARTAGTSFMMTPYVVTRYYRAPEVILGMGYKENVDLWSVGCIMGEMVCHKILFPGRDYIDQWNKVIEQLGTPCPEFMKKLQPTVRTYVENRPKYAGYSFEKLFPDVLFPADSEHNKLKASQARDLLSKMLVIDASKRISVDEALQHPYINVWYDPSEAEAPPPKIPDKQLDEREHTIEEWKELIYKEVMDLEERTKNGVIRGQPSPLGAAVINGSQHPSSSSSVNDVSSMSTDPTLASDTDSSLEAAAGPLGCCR
Sequence of Focal adhesion kinase 1 (Homo sapiens) (Q05397 2-1052 limits assumed): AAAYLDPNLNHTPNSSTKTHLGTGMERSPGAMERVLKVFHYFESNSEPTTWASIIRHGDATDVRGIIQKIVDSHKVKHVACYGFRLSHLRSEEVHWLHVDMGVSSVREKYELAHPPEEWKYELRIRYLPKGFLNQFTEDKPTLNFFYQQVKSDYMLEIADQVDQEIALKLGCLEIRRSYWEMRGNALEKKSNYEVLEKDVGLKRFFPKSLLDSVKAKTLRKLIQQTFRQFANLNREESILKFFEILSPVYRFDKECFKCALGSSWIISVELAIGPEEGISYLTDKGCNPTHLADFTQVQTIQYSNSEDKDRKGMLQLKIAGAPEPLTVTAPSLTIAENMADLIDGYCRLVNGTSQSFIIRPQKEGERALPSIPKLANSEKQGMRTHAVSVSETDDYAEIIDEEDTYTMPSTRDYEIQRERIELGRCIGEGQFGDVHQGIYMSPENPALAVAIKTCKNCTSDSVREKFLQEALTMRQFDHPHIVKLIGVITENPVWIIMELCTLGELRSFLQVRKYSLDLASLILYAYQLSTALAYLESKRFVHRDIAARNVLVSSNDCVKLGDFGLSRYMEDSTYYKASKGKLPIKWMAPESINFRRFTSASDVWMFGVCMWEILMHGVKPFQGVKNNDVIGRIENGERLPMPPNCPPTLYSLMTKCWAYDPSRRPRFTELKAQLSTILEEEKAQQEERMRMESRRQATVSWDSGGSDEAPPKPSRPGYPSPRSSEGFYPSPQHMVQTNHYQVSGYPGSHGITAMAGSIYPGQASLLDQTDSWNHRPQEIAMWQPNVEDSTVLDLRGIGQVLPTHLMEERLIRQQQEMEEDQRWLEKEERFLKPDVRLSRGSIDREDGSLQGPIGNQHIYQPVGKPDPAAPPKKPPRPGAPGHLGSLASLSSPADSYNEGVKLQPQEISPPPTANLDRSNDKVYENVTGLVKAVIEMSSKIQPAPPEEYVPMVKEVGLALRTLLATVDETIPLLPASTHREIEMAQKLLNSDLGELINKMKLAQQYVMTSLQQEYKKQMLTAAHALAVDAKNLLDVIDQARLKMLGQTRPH
Sequence of Casein kinase I isoform epsilon (Homo sapiens) (P49674 whole entry, looked up, canonical isoform): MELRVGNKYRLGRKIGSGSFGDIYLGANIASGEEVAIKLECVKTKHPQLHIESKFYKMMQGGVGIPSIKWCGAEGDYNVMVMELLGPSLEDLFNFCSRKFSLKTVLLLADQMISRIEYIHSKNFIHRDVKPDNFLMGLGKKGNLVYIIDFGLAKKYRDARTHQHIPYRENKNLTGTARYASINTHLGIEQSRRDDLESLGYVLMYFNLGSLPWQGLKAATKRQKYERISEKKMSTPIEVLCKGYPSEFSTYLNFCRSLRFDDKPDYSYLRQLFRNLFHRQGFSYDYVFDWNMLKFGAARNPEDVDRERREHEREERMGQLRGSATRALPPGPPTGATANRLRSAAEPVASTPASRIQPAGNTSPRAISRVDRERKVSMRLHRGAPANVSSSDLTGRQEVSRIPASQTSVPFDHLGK
Sequence of Casein kinase I isoform alpha (Homo sapiens) (P48729 2-337 limits assumed): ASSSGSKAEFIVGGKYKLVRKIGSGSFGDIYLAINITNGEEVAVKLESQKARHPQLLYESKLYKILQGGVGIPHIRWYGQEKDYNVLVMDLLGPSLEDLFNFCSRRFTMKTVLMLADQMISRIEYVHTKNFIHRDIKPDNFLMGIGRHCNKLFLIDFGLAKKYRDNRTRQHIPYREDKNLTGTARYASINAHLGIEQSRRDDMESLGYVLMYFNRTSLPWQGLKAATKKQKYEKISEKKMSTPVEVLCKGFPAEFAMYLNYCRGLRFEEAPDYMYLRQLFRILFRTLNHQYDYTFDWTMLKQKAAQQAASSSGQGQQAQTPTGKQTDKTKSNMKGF
Sequence of Macrophage colony-stimulating factor 1 receptor (Homo sapiens) (P07333 whole entry, the tested form may be a part, canonical isoform): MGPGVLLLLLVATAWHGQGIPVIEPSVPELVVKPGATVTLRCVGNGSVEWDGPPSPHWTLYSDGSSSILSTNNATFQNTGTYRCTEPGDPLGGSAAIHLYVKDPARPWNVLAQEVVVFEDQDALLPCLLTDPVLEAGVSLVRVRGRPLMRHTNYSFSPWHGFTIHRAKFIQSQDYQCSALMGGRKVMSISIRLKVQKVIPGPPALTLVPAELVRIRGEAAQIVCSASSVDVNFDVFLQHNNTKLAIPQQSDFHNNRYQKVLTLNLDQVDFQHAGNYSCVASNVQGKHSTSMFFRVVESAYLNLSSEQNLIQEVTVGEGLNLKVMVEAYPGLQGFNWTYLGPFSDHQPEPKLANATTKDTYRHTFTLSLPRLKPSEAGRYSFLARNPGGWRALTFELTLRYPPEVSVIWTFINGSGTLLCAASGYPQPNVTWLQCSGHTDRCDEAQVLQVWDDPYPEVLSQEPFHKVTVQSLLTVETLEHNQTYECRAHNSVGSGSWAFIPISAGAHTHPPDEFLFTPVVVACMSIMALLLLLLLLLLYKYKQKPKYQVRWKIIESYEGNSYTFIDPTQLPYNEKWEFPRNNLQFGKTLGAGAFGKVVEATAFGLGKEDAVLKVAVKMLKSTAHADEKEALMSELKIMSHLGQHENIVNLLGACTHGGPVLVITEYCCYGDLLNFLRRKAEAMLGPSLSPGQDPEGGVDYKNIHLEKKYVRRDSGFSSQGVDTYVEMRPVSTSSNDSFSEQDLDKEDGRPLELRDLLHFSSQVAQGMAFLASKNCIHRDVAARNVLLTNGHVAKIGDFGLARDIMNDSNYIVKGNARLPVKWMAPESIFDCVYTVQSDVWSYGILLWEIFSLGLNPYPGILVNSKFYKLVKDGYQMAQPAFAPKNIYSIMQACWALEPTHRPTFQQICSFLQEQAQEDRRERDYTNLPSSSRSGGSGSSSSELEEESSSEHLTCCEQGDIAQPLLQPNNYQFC
Sequence of Protein kinase C beta type (Homo sapiens) (P05771 2-671 limits assumed): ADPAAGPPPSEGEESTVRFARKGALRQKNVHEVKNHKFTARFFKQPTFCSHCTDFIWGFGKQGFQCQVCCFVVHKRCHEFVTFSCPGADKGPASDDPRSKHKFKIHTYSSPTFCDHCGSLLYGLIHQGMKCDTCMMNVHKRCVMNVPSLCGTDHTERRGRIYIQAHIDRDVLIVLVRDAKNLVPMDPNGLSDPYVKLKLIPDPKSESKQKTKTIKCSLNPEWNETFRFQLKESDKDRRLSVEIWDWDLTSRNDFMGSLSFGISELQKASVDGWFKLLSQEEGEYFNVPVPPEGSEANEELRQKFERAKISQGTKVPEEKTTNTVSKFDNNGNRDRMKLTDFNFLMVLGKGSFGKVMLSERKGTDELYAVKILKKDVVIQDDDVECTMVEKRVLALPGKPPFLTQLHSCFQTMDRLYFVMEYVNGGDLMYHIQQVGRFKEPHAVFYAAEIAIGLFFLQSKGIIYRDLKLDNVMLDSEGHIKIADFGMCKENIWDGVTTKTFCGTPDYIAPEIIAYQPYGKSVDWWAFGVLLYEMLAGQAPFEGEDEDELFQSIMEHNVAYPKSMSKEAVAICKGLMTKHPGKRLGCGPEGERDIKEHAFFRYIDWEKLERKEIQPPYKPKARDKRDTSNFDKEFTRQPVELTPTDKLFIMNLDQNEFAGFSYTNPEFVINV
Sequence of Mitogen-activated protein kinase 11 (Homo sapiens) (Q15759 whole entry): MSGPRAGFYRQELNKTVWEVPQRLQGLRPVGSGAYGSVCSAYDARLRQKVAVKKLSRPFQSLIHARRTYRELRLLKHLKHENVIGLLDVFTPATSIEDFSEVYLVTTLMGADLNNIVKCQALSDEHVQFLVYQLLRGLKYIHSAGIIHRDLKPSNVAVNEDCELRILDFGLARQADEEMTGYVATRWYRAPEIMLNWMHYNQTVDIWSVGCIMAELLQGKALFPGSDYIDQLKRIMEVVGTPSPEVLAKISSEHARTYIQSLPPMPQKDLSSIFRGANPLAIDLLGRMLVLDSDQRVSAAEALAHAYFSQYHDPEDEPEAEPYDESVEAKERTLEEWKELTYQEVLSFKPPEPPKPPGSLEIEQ

Compound: Cn1cc(NC(=O)c2cnn3cccnc23)c(-c2cc(Cl)ccc2OC(F)F)n1
- inhibition [1]: 12%
- inhibition [2]: 13%
- inhibition [3]: 15%
- inhibition [4]: 11%
- inhibition [5]: 6%
- inhibition [6]: 8%
- inhibition [7]: 11%
- inhibition [8]: 6%
- inhibition [9]: 7%
- inhibition [10]: 6%
- inhibition [11]: 29%
- inhibition [12]: -1%
- inhibition [13]: 1%

Compound: O=C(Nc1c[nH]nc1-c1cc(Cl)ccc1OC(F)F)c1cnn2cccnc12
- inhibition [1]: 21%
- inhibition [2]: 20%
- inhibition [3]: 14%
- inhibition [4]: 11%
- inhibition [5]: 10%
- inhibition [6]: 9%
- inhibition [7]: 9%
- inhibition [8]: 8%
- inhibition [9]: 8%
- inhibition [10]: 7%
- inhibition [11]: 6%
- inhibition [12]: 5%
- inhibition [13]: 3%

Compound: O=C(Nc1c[nH]nc1-c1cc2ccccc2cc1OC(F)F)c1cnn2cccnc12
- inhibition [1]: 17%
- inhibition [2]: 24%
- inhibition [3]: 20%
- inhibition [4]: -5%
- inhibition [5]: -1%
- inhibition [6]: 5%
- inhibition [7]: 5%
- inhibition [8]: 15%
- inhibition [9]: 6%
- inhibition [10]: 6%
- inhibition [11]: -3%
- inhibition [12]: 6%
- inhibition [13]: 5%
